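96-well plates; 48 h exposure; 5 concentrations. Endpoints by linear interpolation between flanking doses. Not reached: highest tested concentration assigned. At the GI50, growth is halved.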 The source made the active and inactive calls. Cut-off read from the data, not from the text of the source: active = GI50 up to about 1.1 µM and inactive = higher.
Columns and labels:
Experiment in all cases: inhibition of tumour cell growth, NCI panel, 48 h
A498 = system: A498
A549 = system: A549
ACHN = system: ACHN
CCRF-CEM = system: CCRF-CEM
COLO 205 = system: COLO 205
DLD-1 = system: DLD-1
DMS-114 = system: DMS-114
DMS-273 = system: DMS-273
EKVX = system: EKVX
HCT-116 = system: HCT-116
HCT-15 = system: HCT-15
HL-60 = system: HL-60
HOP-18 = system: HOP-18
HOP-62 = system: HOP-62
HOP-92 = system: HOP-92
HT-29 = system: HT-29
IGROV-1 = system: IGROV-1
K562 = system: K562
KM-20L2 = system: KM-20L2
KM12 = system: KM12
LOX IMVI = system: LOX IMVI
LXFL 529 = system: LXFL 529
M14 = system: M14
M19-MEL = system: M19-MEL
MOLT-4 = system: MOLT-4
Malme-3M = system: Malme-3M
NCI-H226 = system: NCI-H226
NCI-H23 = system: NCI-H23
NCI-H460 = system: NCI-H460
NCI-H522 = system: NCI-H522
OVCAR-3 = system: OVCAR-3
OVCAR-4 = system: OVCAR-4
OVCAR-5 = system: OVCAR-5
OVCAR-8 = system: OVCAR-8
RPMI-8226 = system: RPMI-8226
RXF 393 = system: RXF 393
SF-268 = system: SF-268
SF-295 = system: SF-295
SF-539 = system: SF-539
SK-MEL-28 = system: SK-MEL-28
SK-MEL-2 = system: SK-MEL-2
SK-OV-3 = system: SK-OV-3
SN12C = system: SN12C
SNB-19 = system: SNB-19
SNB-78 = system: SNB-78
SR = system: SR
SW-620 = system: SW-620
TK-10 = system: TK-10
U-251 = system: U-251
UACC-257 = system: UACC-257
UO-31 = system: UO-31
XF498 = system: XF498
786-0 = system: 786-0
CAKI-1 = system: CAKI-1
HCC 2998 = system: HCC 2998
SK-MEL-5 = system: SK-MEL-5
SNB-75 = system: SNB-75
UACC-62 = system: UACC-62

**Q.** With COc1cc(Cc2ccc3c(c2C#N)N(C)c2ccccc2S3)cc(OC)c1OC as the molecule, how does the GI50 (A498) read?
**A.** 21.8 µM (inactive)

**Q.** What about the GI50 (A549) of the same molecule?
**A.** 9.4 µM (inactive)

**Q.** And the GI50 (ACHN)?
**A.** 41.4 µM (inactive)

**Q.** And the GI50 (CCRF-CEM)?
**A.** 39.3 µM (inactive)

**Q.** And the GI50 (COLO 205)?
**A.** 36.9 µM (inactive)

**Q.** What about the GI50 (DLD-1) of the same molecule?
**A.** > 100 µM (inactive)

**Q.** What about the GI50 (DMS-114) of the same molecule?
**A.** 14.6 µM (inactive)

**Q.** And the GI50 (DMS-273)?
**A.** 33.4 µM (inactive)

**Q.** What about the GI50 (EKVX) of the same molecule?
**A.** 40.8 µM (inactive)

**Q.** And the GI50 (HCT-116)?
**A.** 13.9 µM (inactive)

**Q.** And the GI50 (HCT-15)?
**A.** 11 µM

**Q.** What about the GI50 (HL-60) of the same molecule?
**A.** 13.7 µM (inactive)

**Q.** And the GI50 (HOP-18)?
**A.** 72.4 µM (inactive)

**Q.** What about the GI50 (HOP-62) of the same molecule?
**A.** 59.7 µM (inactive)

**Q.** And the GI50 (HOP-92)?
**A.** 48.5 µM (inactive)

**Q.** And the GI50 (HT-29)?
**A.** 53.7 µM (inactive)

**Q.** And the GI50 (IGROV-1)?
**A.** > 100 µM (inactive)

**Q.** And the GI50 (K562)?
**A.** 4.39 µM (inactive)

**Q.** And the GI50 (KM-20L2)?
**A.** 36.1 µM (inactive)

**Q.** And the GI50 (KM12)?
**A.** > 100 µM (inactive)

**Q.** And the GI50 (LOX IMVI)?
**A.** 8.15 µM (inactive)

**Q.** What about the GI50 (LXFL 529) of the same molecule?
**A.** 6.87 µM (inactive)

**Q.** And the GI50 (M14)?
**A.** > 100 µM (inactive)

**Q.** And the GI50 (M19-MEL)?
**A.** 52.4 µM (inactive)

**Q.** And the GI50 (MOLT-4)?
**A.** 13.7 µM (inactive)

**Q.** What about the GI50 (Malme-3M) of the same molecule?
**A.** 34.3 µM (inactive)

**Q.** What about the GI50 (NCI-H226) of the same molecule?
**A.** 62.4 µM (inactive)

**Q.** And the GI50 (NCI-H23)?
**A.** 4.14 µM (inactive)

**Q.** And the GI50 (NCI-H460)?
**A.** 52.2 µM (inactive)

**Q.** And the GI50 (NCI-H522)?
**A.** 34.7 µM (inactive)

**Q.** And the GI50 (OVCAR-3)?
**A.** 18.7 µM (inactive)

**Q.** And the GI50 (OVCAR-4)?
**A.** > 100 µM (inactive)

**Q.** What about the GI50 (OVCAR-5) of the same molecule?
**A.** > 100 µM (inactive)

**Q.** And the GI50 (OVCAR-8)?
**A.** 19.8 µM (inactive)

**Q.** And the GI50 (RPMI-8226)?
**A.** 8.39 µM (inactive)

**Q.** And the GI50 (RXF 393)?
**A.** 15.3 µM (inactive)

**Q.** What about the GI50 (SF-268) of the same molecule?
**A.** > 100 µM (inactive)

**Q.** And the GI50 (SF-295)?
**A.** 7.53 µM (inactive)

**Q.** And the GI50 (SF-539)?
**A.** 17.8 µM (inactive)

**Q.** What about the GI50 (SK-MEL-28) of the same molecule?
**A.** > 100 µM (inactive)

**Q.** And the GI50 (SK-MEL-2)?
**A.** > 100 µM (inactive)

**Q.** What about the GI50 (SK-OV-3) of the same molecule?
**A.** > 100 µM (inactive)

**Q.** And the GI50 (SN12C)?
**A.** 22.3 µM (inactive)

**Q.** What about the GI50 (SNB-19) of the same molecule?
**A.** 53.5 µM (inactive)

**Q.** And the GI50 (SNB-78)?
**A.** > 100 µM (inactive)

**Q.** And the GI50 (SR)?
**A.** 6.14 µM (inactive)

**Q.** And the GI50 (SW-620)?
**A.** > 100 µM (inactive)

**Q.** And the GI50 (TK-10)?
**A.** > 100 µM (inactive)

**Q.** What about the GI50 (U-251) of the same molecule?
**A.** 27.2 µM (inactive)

**Q.** What about the GI50 (UACC-257) of the same molecule?
**A.** 12.1 µM (inactive)

**Q.** And the GI50 (UO-31)?
**A.** 30.9 µM (inactive)

**Q.** And the GI50 (XF498)?
**A.** 30.1 µM (inactive)

**Q.** What does the source list for c1ccc(COc2ccc3[nH]c4c5c6ccccc6nc-5c[nH]c4c3c2)cc1?
**A.** GI50 (786-0): 6.46 µM (inactive); GI50 (A498): 21.6 µM (inactive); GI50 (A549): 17.8 µM (inactive); GI50 (ACHN): 17.5 µM (inactive); GI50 (CAKI-1): 22 µM (inactive); GI50 (CCRF-CEM): 11.4 µM (inactive); GI50 (COLO 205): 19 µM (inactive); GI50 (DLD-1): 12.4 µM (inactive); GI50 (DMS-114): 16.6 µM (inactive); GI50 (DMS-273): 16.6 µM (inactive); GI50 (EKVX): 17.7 µM (inactive); GI50 (HCC 2998): 10.5 µM (inactive); GI50 (HCT-116): 12.2 µM (inactive); GI50 (HCT-15): 4.3 µM; GI50 (HL-60): 2.19 µM (inactive); GI50 (HOP-18): 13.2 µM (inactive); GI50 (HOP-62): 15.8 µM (inactive); GI50 (HOP-92): 15.8 µM (inactive); GI50 (HT-29): 5.47 µM (inactive); GI50 (IGROV-1): 13.8 µM (inactive); GI50 (K562): 2.48 µM (inactive); GI50 (KM-20L2): 8.02 µM (inactive); GI50 (KM12): 14.7 µM (inactive); GI50 (LOX IMVI): 18.7 µM (inactive); GI50 (LXFL 529): 16 µM (inactive); GI50 (M14): 13.7 µM (inactive); GI50 (MOLT-4): 7.62 µM (inactive); GI50 (Malme-3M): 13.5 µM (inactive); GI50 (NCI-H226): 15.4 µM (inactive); GI50 (NCI-H23): 18.3 µM (inactive); GI50 (NCI-H460): 18.6 µM (inactive); GI50 (NCI-H522): 16.7 µM (inactive); GI50 (OVCAR-3): 15.9 µM (inactive); GI50 (OVCAR-5): 19.4 µM (inactive); GI50 (OVCAR-8): 17.5 µM (inactive); GI50 (RPMI-8226): 2.97 µM (inactive); GI50 (RXF 393): 11.2 µM (inactive); GI50 (SF-268): 17 µM (inactive); GI50 (SF-295): 14.8 µM (inactive); GI50 (SF-539): 15.7 µM (inactive); GI50 (SK-MEL-28): 17.2 µM (inactive); GI50 (SK-MEL-2): 16.9 µM (inactive); GI50 (SK-MEL-5): 15.7 µM (inactive); GI50 (SK-OV-3): 18.4 µM (inactive); GI50 (SN12C): 15.4 µM (inactive); GI50 (SNB-19): 17.7 µM (inactive); GI50 (SNB-75): 12.7 µM (inactive); GI50 (SNB-78): 20.9 µM (inactive); GI50 (SR): 8.95 µM (inactive); GI50 (SW-620): 17.3 µM (inactive); GI50 (TK-10): 21.9 µM (inactive); GI50 (U-251): 11.7 µM (inactive); GI50 (UACC-257): 18 µM (inactive); GI50 (UACC-62): 19.6 µM (inactive); GI50 (UO-31): 18.7 µM (inactive); GI50 (XF498): 13.7 µM (inactive)
